For one molecule, intracellular localization results are on record in patent US20200000916A1, “REGIONALLY ACTIVATED DRUG DELIVERY NANOPARTICLES” (The Regents of the University of California, priority 2013, published 2020).

“Also recorded” adds a separate entry of the source.

The assay concerns PTK2 kidney epithelial cells. The assay is described as follows: Cellular localization by live fluorescence microscopy. It counts as cell-based. The conditions noted are these: 2 μM, 2 hours incubation, before/without 365 nm light exposure; hydrochloride. An excerpt:
The intracellular localization of the DOX-PCB nanoparticles and pure DOX was studied using the PTK2 epithelial cell line. These cells were used because they are susceptible to DOX and remain flat during mitosis, allowing for enhanced visualization of the nuclear region. This visualization capability was important since one of the main therapeutic modes of action for DOX is through DNA intercalation. The DOX-PCB nanoparticles and pure DOX are both naturally fluorescent which allowed them to be easily tracked through the cell. The PTK2 cells were plated in glass bottom petri dishes (MatTek Corporation, Ashland, Mass.) and were incubated in advanced MEM Media from Gibco (Invitrogen, Grand Island, N.Y.) with 2% fetal bovine serum, nonessential amino acids, 110 mg/L sodium pyruvate, and without penicillin-streptomycin or L-Glutamine.
A 1 ml media solution of DOX-PCB nanoparticles was prepared by first adding 10×DPBS to a 4.1 μM solution of DOX-PCB nanoparticles in water to achieve a 1×DPBS concentration, and then adding the resulting solution to a phenol-red free formulation of the advanced MEM media described above to achieve a final DOX-PCB content of 2 μM. This spiked media sample was then added to the glass bottom petri dish along with PTK2 cells seeded which had the previous incubation media removed. […]

In the case of `COc1cccc2c1C(=O)c1c(O)c3c(c(O)c1C2=O)C[C@@](O)(C(=O)CO)C[C@@H]3O[C@H]1C[C@H](N)[C@H](O)[C@H](C)O1.Cl` [DOX, Doxorubicin hydrochloride], the intracellular localization result is reported as “strongly associate with the cell nuclei; also recorded: associate strongly with the cell nuclei”.
